Assay results as given in ChEMBL document CHEMBL3507680, “University of Dundee, Gates Library screen for HepG2 cell viability”.

Assay: Human HepG2 cell viability assay in 384 well format
Type: toxicity, cell-based
Design: dose 125 nL, time 70.5 hour; cytotoxicity at 70.5 h: concentration not given beside the values
Conditions: HepG2 cells, read-out: Inhibition

| SMILES | cytotoxicity at 70.5 h [%] |
| --- | --- |
| Cc1cnn(CC2CCCN2CC(=O)N(C)Cc2ccc(C)o2)c1 (configuration not stated) | -7.64 |
| c1ncc(CN2CC(Cc3nccc4cc[nH]c34)C2)cn1 | -1.22 |
| CCn1cc(CN2CCCN(C(=O)CCc3cnn(C)c3)CC2)cn1 | -11.5 |
| CN(C)CC(=O)Nc1ccc(C(=O)N(C)CCc2cn[nH]c2)cc1 | -1.37 |
| N#Cc1ccc(CNC(=O)NC2CCN(c3ncccn3)CC2)cc1 | -7.8 |
| Cc1c(CN2CCC(C(=O)O)(n3ccnc3)CC2)oc2ccccc12 | -7.33 |
| c1ccc(-n2ncc(CNC3CCc4ncnn4C3)n2)cc1 (configuration not stated) | -10.4 |
| Cc1ncc(C)c(N2CCCC(CO)(Cc3cccc(Cl)c3)C2)n1 (configuration not stated) | 1.75 |
| Cc1ccccc1C(C(=O)N(C)CCc1cn[nH]c1)N(C)C (configuration not stated) | -7.29 |
| CN(Cc1ccco1)C[C@H]1OC[C@@H]2CCN(Cc3ccncc3)C[C@@H]21 | 15.7 |
| Cc1cc(C)n(C2CCCN(C(=O)c3ccc(N(C)C)nc3)C2)n1 (configuration not stated) | -2.57 |
| CCN1C(=O)C(C)(C)c2cc(NC(=O)c3ccco3)ccc21 | -7.99 |
| CCCc1nc(CN(CC)C(=O)c2ccc(OC)c(OC)c2)no1 | 25.6 |
| CCc1cc(-c2cc[nH]n2)nc(N2CCOCC2)n1 | 15.6 |
| CCS(=O)(=O)N1CCCC2(COCCN(c3nncs3)C2)C1 (configuration not stated) | -2.49 |
| CN(C)Cc1ccc(C(=O)N2CCCC(n3cccn3)C2)cc1 (configuration not stated) | 8.2 |
| Cc1nn(C)c(C)c1-c1nc2cc(S(=O)(=O)N3CCCC3)ccc2n1C | -0.406 |
| CC(O)(CCc1ccccc1)CNC(=O)c1cccs1 (configuration not stated) | -3.94 |
| O=C(NCc1ccccc1Cn1cncn1)C1CCC1 | -4.18 |

| SMILES | cytotoxicity at 70.5 h [%] |
| --- | --- |
| NC(=O)COc1cccc(C(=O)N2CCCC(n3ccnc3)C2)c1 (configuration not stated) | -14.8 |
| CC(=O)N1CCC2(CC1)CC(C(C)C)=NO2 | -9.06 |
| C1CCN(CCOC2CCNC2)CC1 (configuration not stated) | -3.02 |
| Cc1nc(N)sc1C(=O)N[C@H]1CN(CCO)C[C@@H]1C1CC1 | -2.54 |
| O=C(NCCNS(=O)(=O)c1ccc2c(c1)CCC2)c1ccccc1 | -1.96 |
| Cc1cnn(CC2CCCN2C(=O)c2cc3ccccc3[nH]c2=O)c1 (configuration not stated) | 8.93 |
| CCOCCN1CCN(Cc2nnc(-c3occc3C)o2)CC1CC (configuration not stated) | -5.31 |
| CC(C)c1nnc(CN2CCCC2Cn2cncn2)o1 (configuration not stated) | -11.1 |
| CC(=O)N1CCN(c2ccccc2CNc2ccc3[nH]ncc3c2)CC1 | 0.892 |
| Cc1ccc(-n2cnc(Cl)c2CO)cc1 | -3.28 |
| CN1CCC2(CC1)C(=O)N(C)c1ccc(F)cc12 | 27.9 |
| CN1CCc2c(C#N)c(NCCCO)n3cnnc3c2C1 | -20.7 |
| O=C(NCc1ccco1)[C@H]1COC[C@H]2CN(Cc3ccoc3)C[C@H]21 | 13.6 |
| Cc1cc(NCCO)nc2[nH]nc(N)c12 | -14.9 |
| Cc1cc(-c2ccnn2C)nc(C2CCN(S(C)(=O)=O)CC2)n1 | -4.75 |
| COCc1nc(CNC2CCN(C(C)C)CC2)no1 | -8.15 |
| CSc1sc(NC(=O)C2CCCN(C(N)=O)C2)nc1C (configuration not stated) | -13.6 |
| CC(=O)NC(CC(=O)Nc1nc(C)c(C)s1)c1ccccc1 (configuration not stated) | 0.551 |
| O=C(NCc1nnc2n1CCCC2)c1cn(-c2ccccc2)nn1 | -4.64 |

| SMILES | cytotoxicity at 70.5 h [%] |
| --- | --- |
| COCC1CC2(CCN(C(=O)c3cc(C)oc3C)CC2)CN1C(C)C (configuration not stated) | 0.799 |
| O=C(NCCNc1ncccn1)C1CCN(c2ncccn2)CC1 | -10.8 |
| CC(C)(C)CC(=O)N1C[C@H]2CCN[C@H]2C1 | -2.71 |
| CN(C(=O)Cn1nc(-c2ccccc2)ccc1=O)C1CCS(=O)(=O)C1 (configuration not stated) | -12.1 |
| C[C@H]1CN(Cc2cccc(F)c2)C[C@@]12CCN(CC(=O)N(C)C)C2=O | -5.99 |
| COc1ncc(-c2nccn2CCN(C)C)cn1 | 9.94 |
| COCC(=O)N[C@H](C)c1onc(-c2ccccc2)c1C(=O)O | -4.32 |
| CNc1cc(C2CN(Cc3coc(C)n3)CCO2)nc(C)n1 (configuration not stated) | -8.75 |
| O=C(CC1=CCCCC1)NCCc1csc(N2CCCC2)n1 | -0.0397 |
| CCn1nc(C(C)C)cc1C(=O)NCCCOC | -4.05 |
| CN1CC(c2ccccc2)C2(CCN(C(=O)c3cccn3C)CC2)C1=O (configuration not stated) | 1.54 |
| COCCCC1(CO)CCCN(Cc2cccc(C#N)c2)C1 (configuration not stated) | -5.8 |
| CC(=O)N1[C@H](CN(C)C)C[C@@H]2CN(C(=O)c3occc3C)CC[C@@H]21 | -3.81 |
| COCCN1C(=O)CC[C@@H]2[C@@H]1CCN2S(=O)(=O)C1CC1 | -3.21 |
| Cc1ccccc1NC(=O)N1CCN(C(=O)C2CC2)[C@@H]2CS(=O)(=O)C[C@@H]21 | -6.63 |
| CC(C)N1C[C@H](O)C[C@H]1c1nc(-c2ccc(OC(F)(F)F)cc2)no1 | -3.17 |
| Cc1cc(NC(=O)CN2CCOC(CN(C)C)C2)n(C)n1 (configuration not stated) | 17.6 |
| COC1CCN(CCNc2ncc(Br)cc2C)CC1 | -1.86 |
| Cc1cnc(NC(=O)c2cccc(CN(C)Cc3ncccc3C)c2)s1 | 8.51 |
